US20240174671A1, “New 2,3-Dihydro-1H-pyrrolo[3,2-b]pyridine Derivatives as Sigma Ligands” (ACONDICIONAMIENTO TARRASENSE, priority 2021, published 2024)
Where a name gives a salt, the structure may show the parent alone.

How the values were obtained:
[1] = target: T1, human σ1 receptor (Homo sapiens, UniProt Q99720); assay: Human σ1 receptor radioligand assay ([3H](+)-pentazocine); assay type: binding; conditions: transfected HEK-293 membranes, 5 nM [3H](+)-pentazocine, 37° C., 120 minutes; read-out: Binding σ-[…] (binding to σ1-receptor expressed as Ki)
T1 construct: expressed in transfected cells; host or cells: HEK-293
T1 sequence (Q99720 whole entry): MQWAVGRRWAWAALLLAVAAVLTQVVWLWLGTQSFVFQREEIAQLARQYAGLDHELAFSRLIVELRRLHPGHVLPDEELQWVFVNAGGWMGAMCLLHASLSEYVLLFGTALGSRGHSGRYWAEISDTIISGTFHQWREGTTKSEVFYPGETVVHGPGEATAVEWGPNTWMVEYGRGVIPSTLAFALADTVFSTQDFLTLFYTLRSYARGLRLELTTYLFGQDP
In short: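 Binding used [3H](+)-pentazocine, 120 min at 37° C, with non-specific binding defined by 10 μM haloperidol. Bound radioligand was collected by filtration, washed with ice-cold 10 mM Tris-HCl pH 7.4 and counted by scintillation.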

[2] = target: T2, human σ2/TMEM97 receptor (Homo sapiens, UniProt Q5BJF2); assay: Binding assay to human σ2/TMEM97 receptor ([3H]-DTG); conditions: transfected HEK-293 membranes, 10 nM [3H]-DTG, 25° C., 120 minutes; read-out: Binding σ-[…] (binding to σ2-receptor expressed as Ki)
T2 construct: expressed in transfected cells; host or cells: HEK-293
T2 sequence (Q5BJF2 whole entry): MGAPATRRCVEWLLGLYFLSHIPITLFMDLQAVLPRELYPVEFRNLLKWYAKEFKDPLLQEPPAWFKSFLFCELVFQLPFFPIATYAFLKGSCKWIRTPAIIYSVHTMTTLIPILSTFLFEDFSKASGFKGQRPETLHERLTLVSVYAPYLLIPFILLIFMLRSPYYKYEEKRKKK
In short: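 Membranes from transfected HEK-293 cells incubated with 10 nM [3H]-DTG in 50 mM Tris-HCl pH 8.0, 120 min at 25 °C; non-specific binding defined with 10 μM haloperidol. Bound radioactivity counted after filtration; compounds tested as % inhibition at 1 or 10 μM or at five concentrations for Ki.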

Compound	Ki [1] [nM]	Ki [2] [nM]
Cc1ccc2c(n1)C(C)(C)CN2C(=O)N1CCC(N(C)Cc2cccc(F)c2)CC1 [Example 116, (4-((3-fluorobenzyl)(methyl)amino)piperidin-1-yl)(3,3,5-trimethyl-2,3-dihydro-1H-pyrrolo[3,2-b]pyridin-1-yl)methanone]	500 to 1000	< 100
Cc1ccc2c(n1)C(C)(C)CN2C(=O)N1CCC(N(C)Cc2ccc(C#N)cc2)CC1 [Example 117, 4-((methyl(1-(3,3,5-trimethyl-2,3-dihydro-1H-pyrrolo[3,2-t]pyridine-1-carbonyl)piperidin-4-yl)amino)methyl)benzonitrile]	100 to 500	< 100
Cc1ccc2c(n1)C(C)(C)CN2C(=O)N1CCC(N(C)Cc2cccc(C#N)c2)CC1 [Example 118, 3-((methyl(1-(3,3,5-trimethyl-2,3-dihydro-1H-pyrrolo[3,2-t]pyridine-1-carbonyl)piperidin-4-yl)amino)methyl)benzonitrile]	> 1000	< 100
Cc1ccc2c(n1)C(C)(C)CN2C(=O)N1CCC(N(C)CC(C)C)CC1 [Example 119, (4-(isobutyl(methyl)amino)piperidin-1-yl)(3,3,5-trimethyl-2,3-dihydro-1H-pyrrolo[3,2-b]pyridin-1-yl)methanone]	100 to 500	100 to 500
Cc1ccc2c(n1)C(C)(C)CN2C(=O)N1CCCCC(NCCC(C)C)C1 (stereo not drawn) [Example 120, (3-(Isopentylamino)azepan-1-yl)(3,3,5-trimethyl-2,3-dihydro-1H-pyrrolo[3,2-t]pyridin-1-yl)methanone]	500 to 1000	< 100
CC(C)CCN[C@H]1CCCCN(C(=O)N2CCc3ncccc32)C1 [Example 121, (S)-(2,3-dihydro-1H-pyrrolo[3,2-b]pyridin-1-yl)(3-(isopentylamino)azepan-1-yl)methanone]	100 to 500	100 to 500
CC(C)CCN(C)[C@H]1CCCCN(C(=O)N2CCc3ncccc32)C1 [Example 122, (S)-(2,3-dihydro-1H-pyrrolo[3,2-b]pyridin-1-yl)(3-(isopentyl(methyl)amino)azepan-1-yl)methanone]	< 100	100 to 500
Cc1ccc2c(n1)C(C)(C)CN2C(=O)C1CCN(Cc2ccccc2)CC1 [Example 123, (1-benzylpiperidin-4-yl)(3,3,5-trimethyl-2,3-dihydro-1H-pyrrolo[3,2-b]pyridin-1-yl)methanone]	< 100	500 to 1000
Cc1ccc2c(n1)C(C)(C)CN2C(=O)[C@@H]1CN(Cc2ccccc2)C[C@H]1C [Example 124, ((3S,4S)-1-benzyl-4-methylpyrrolidin-3-yl)(3,3,5-trimethyl-2,3-dihydro-1H-pyrrolo[3,2-b]pyridin-1-yl)methanone]	< 100	> 1000
Cc1ccc2c(n1)C(C)(C)CN2C(=O)[C@H]1CN(Cc2ccccc2)C[C@@H]1C [Example 125, ((3R,4R)-1-benzyl-4-methylpyrrolidin-3-yl)(3,3,5-trimethyl-2,3-dihydro-1H-pyrrolo[3,2-b]pyridin-1-yl)methanone]	< 100	100 to 500
Cc1ccc2c(n1)C(C)(C)CN2C(=O)[C@H]1CC[C@@H](N(C)Cc2ccccc2)CC1 [Example 126, ((1s,4s)-4-(benzyl(methyl)amino)cyclohexyl)(3,3,5-trimethyl-2,3-dihydro-1H-pyrrolo[3,2-b]pyridin-1-yl)methanone]	< 100	< 100
CN(Cc1ccccc1)[C@H]1CC[C@@H](C(=O)N2CC(C)(C)c3ncccc32)CC1 [Example 127, ((1s,4s)-4-(benzyl(methyl)amino)cyclohexyl)(3,3-dimethyl-2,3-dihydro-1H-pyrrolo[3,2-b]pyridin-1-yl)methanone]	< 100	< 100
CC1(C)CN(C(=O)[C@H]2CC[C@H](NCc3ccccc3)CC2)c2cccnc21 [Example 128, ((1r,4r)-4-(benzylamino)cyclohexyl)(3,3-dimethyl-2,3-dihydro-1H-pyrrolo[3,2-b]pyridin-1-yl)methanone dihydrochloride]	< 100	100 to 500
Cc1ccc2c(n1)C(C)(C)CN2C(=O)CC1CCN(Cc2ccccc2)CC1 [Example 130, 2-(1-benzylpiperidin-4-yl)-1-(3,3,5-trimethyl-2,3-dihydro-1H-pyrrolo[3,2-b]pyridin-1-yl)ethanone]	< 100	100 to 500
Cc1ccc2c(n1)C(C)(C)CN2C(=O)C1CN(Cc2ccccc2)C1 [Example 131, (1-benzylazetidin-3-yl)(3,3,5-trimethyl-2,3-dihydro-1H-pyrrolo[3,2-b]pyridin-1-yl)methanone]	< 100	> 1000
CC1(C)CN(C(=O)C2CN(Cc3ccccc3)C2)c2cccnc21 [Example 132, (1-benzylazetidin-3-yl)(3,3-dimethyl-2,3-dihydro-1H-pyrrolo[3,2-b]pyridin-1-yl)methanone]	< 100	100 to 500
Cc1ccc2c(n1)C(C)(C)CN2C(=O)C1CN(Cc2ccc(F)cc2)C1 [Example 133, (1-(4-fluorobenzyl)azetidin-3-yl)(3,3,5-trimethyl-2,3-dihydro-1H-pyrrolo[3,2-b]pyridin-1-yl)methanone]	< 100	> 1000
Cc1ccc2c(n1)C(C)(C)CN2C(=O)[C@H]1C[C@H](NCc2ccccc2)C1 [Example 134, ((1r,3r)-3-(benzylamino)cyclobutyl)(3,3,5-trimethyl-2,3-dihydro-1H-pyrrolo[3,2-b]pyridin-1-yl)methanone]	100 to 500	> 1000
Cc1ccc2c(n1)C(C)(C)CN2C(=O)C1CN(Cc2cccc(F)c2)C1 [Example 135, (1-(3-fluorobenzyl)azetidin-3-yl)(3,3,5-trimethyl-2,3-dihydro-1H-pyrrolo[3,2-b]pyridin-1-yl)methanone]	< 100	500 to 1000
Cc1ccc2c(n1)C(C)(C)CN2C(=O)[C@H]1C[C@@H](NCc2ccccc2)C1 [Example 136, ((1s,3s)-3-(benzylamino)cyclobutyl)(3,3,5-trimethyl-2,3-dihydro-1H-pyrrolo[3,2-b]pyridin-1-yl)methanone]	100 to 500	100 to 500
Cc1ccc2c(n1)C(C)(C)CN2C(=O)[C@H]1C[C@H](N(C)Cc2ccccc2)C1 [Example 137, ((1r,3r)-3-(Benzyl(methyl)amino)cyclobutyl)(3,3,5-trimethyl-2,3-dihydro-1H-pyrrolo[3,2-b]pyridin-1-yl)methanone]	< 100	100 to 500
CN(Cc1ccccc1)[C@H]1CC[C@H](C(=O)N2CC(C)(C)c3ncccc32)CC1 [Example 138, ((1r,4r)-4-(benzyl(methyl)amino)cyclohexyl)(3,3-dimethyl-2,3-dihydro-1H-pyrrolo[3,2-b]pyridin-1-yl)methanone]	< 100	< 100
Cc1ccc2c(n1)C(C)(C)CN2C(=O)[C@H]1C[C@@H](N(C)Cc2ccccc2)C1 [Example 139, ((1s,3s)-3-(benzyl(methyl)amino)cyclobutyl)(3,3,5-trimethyl-2,3-dihydro-1H-pyrrolo[3,2-b]pyridin-1-yl)methanone]	100 to 500	100 to 500
Cc1ccc2c(n1)C(C)(C)CN2C(=O)[C@H]1CC[C@H](N(C)Cc2ccccc2)CC1 [Example 140, ((1r,4r)-4-(benzyl(methyl)amino)cyclohexyl)(3,3,5-trimethyl-2,3-dihydro-1H-pyrrolo[3,2-b]pyridin-1-yl)methanone]	< 100	< 100
CC1(C)CN(C(=O)N2CCC3(CCN(Cc4ccccc4F)CC3)C2)c2cccnc21 [Example 141, (3,3-dimethyl-2,3-dihydro-1H-pyrrolo[3,2-b]pyridin-1-yl)(8-(2-fluorobenzyl)-2,8-diazaspiro[4.5]decan-2-yl)methanone]	< 100	< 100
CC1(C)CN(C(=O)N2CCC3(CCN(Cc4ccc(C#N)c(F)c4)CC3)C2)c2cccnc21 [Example 142, 4-((2-(3,3-dimethyl-2,3-dihydro-1H-pyrrolo[3,2-b]pyridine-1-carbonyl)-2,8-diazaspiro[4.5]decan-8-yl)methyl)-2-fluorobenzonitrile]	< 100	< 100
CC1(C)CN(C(=O)N2CCC3(CCN(Cc4ccc(F)c(C#N)c4)CC3)C2)c2cccnc21 [Example 143, 5-((2-(3,3-dimethyl-2,3-dihydro-1H-pyrrolo[3,2-b]pyridine-1-carbonyl)-2,8-diazaspiro[4.5]decan-8-yl)methyl)-2-fluorobenzonitrile]	100 to 500	< 100
CC1(C)CN(C(=O)N2CCC3(CCN(CC4CCOCC4)CC3)C2)c2cccnc21 [Example 144, (3,3-dimethyl-2,3-dihydro-1H-pyrrolo[3,2-b]pyridin-1-yl)(8-((tetrahydro-2H-pyran-4-yl)methyl)-2,8-diazaspiro[4.5]decan-2-yl)methanone]	100 to 500	< 100
CC1(C)CN(C(=O)N2CCC3(CCN(Cc4ccccc4F)CC3)CC2)c2cccnc21 [Example 145, (3,3-dimethyl-2,3-dihydro-1H-pyrrolo[3,2-b]pyridin-1-yl)(9-(2-fluorobenzyl)-3,9-diazaspiro[5.5]undecan-3-yl)methanone]	< 100	< 100
CC1(C)CN(C(=O)N2CCC3(CCN(Cc4ccc(C#N)c(F)c4)CC3)CC2)c2cccnc21 [Example 146, 4-((9-(3,3-dimethyl-2,3-dihydro-1H-pyrrolo[3,2-b]pyridine-1-carbonyl)-3,9-diazaspiro[5.5]undecan-3-yl)methyl)-2-fluorobenzonitrile]	< 100	100 to 500
